Source: patent US5550212A, “Analogues of hGH-RH(1-29)NH2 having antagonistic activity” (The Administrators of the Tulane Educational Fund, priority 1993, dated 1996)
Non-standard residues stand in square brackets, D forms with d. Residues, ends and D or L forms follow the SMILES beside them.

Columns and labels:
[1] = test system: hGH-RH(1-29)NH2 induced GH release; experiment: Superfused rat pituitary system: inhibition of hGH-RH(1-29)NH2 induced GH release; type: cell-based; conditions: dose 100 nM
Description: Superfused Rat Pituitary System. The analogues were tested in vitro in a test described earlier (S. Vigh and A. V. Schally, Peptides 5:241-[…], 1984) with modification ([…] and […]. 90:2146-2149, 1993). Briefly, the cells are preincubated with peptides for 9 minutes (3 mL) at various concentrations. Immediately after the incubation, 1 nM hGH-RH(1-29)NH2 is administered for 3 minutes (1 mL) [0 minute response]. To check the duration of the antagonistic effect of the analogue, 1 nM hGH-RH(1-29)NH2 is applied 30, 60, 90, and 120 minutes later for 3 minutes [30, 60, 90, 120 min responses]. Net integral values of the GH responses are evaluated. GH responses are compared to and expressed as percent of the original GH response induced by 1 nM GH-RH(1-29)NH2. The effect of the new antagonists are compared to that of [Ac-[…] ]hGH-RH(1-29)NH2, the "Standard antagonist". Growth Hormone Radio-immunoassay. Rat GH levels in aliquots of undiluted and diluted superfusion samples were measured by double-antibody radioimmunoassay using materials supplied by the National Hormone and Pituitary Program, Baltimore, Md. The results of RIA were analyzed with a computer program developed in our institute (V. Csernus and A. V. Schally, Harwood Academic (Greenstein, B. C. ed., London, pp. 71-109, 1991), hereby incorporated by reference. Inter-assay variation was less than 15% and intra-assay variation was less than 10%.

[2] = target: T1, rat pituitary GH-RH receptors (Rattus norvegicus, UniProt Q02644); experiment: GH-RH binding assay, competitive binding on rat anterior pituitary membrane homogenates
T1 construct: from tissue; host or cells: rat anterior pituitary (male Sprague-Dawley), crude membranes
T1 sequence (Q02644 23-464): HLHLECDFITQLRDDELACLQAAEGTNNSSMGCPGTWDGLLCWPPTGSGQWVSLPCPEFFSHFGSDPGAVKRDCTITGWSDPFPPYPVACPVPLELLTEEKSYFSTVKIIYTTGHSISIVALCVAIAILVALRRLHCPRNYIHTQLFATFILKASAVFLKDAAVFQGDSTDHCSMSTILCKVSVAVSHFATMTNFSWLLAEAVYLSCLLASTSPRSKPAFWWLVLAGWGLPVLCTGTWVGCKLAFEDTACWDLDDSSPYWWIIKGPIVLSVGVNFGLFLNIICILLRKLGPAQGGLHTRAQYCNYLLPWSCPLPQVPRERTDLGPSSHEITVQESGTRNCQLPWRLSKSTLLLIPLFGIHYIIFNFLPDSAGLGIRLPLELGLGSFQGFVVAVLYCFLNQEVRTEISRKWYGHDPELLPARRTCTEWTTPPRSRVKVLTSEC
Description: GH-RH Binding Assay. A sensitive radioreceptor binding assay was developed to determine the binding characteristics of the antagonists of GH-RH (G. Halmos, A. V. Schally et al., Receptor 3, 87-97, 1993), hereby incorporated by reference. The assay is based on binding of labelled [His^1,Nle^27 ]hGH-RH(1-32)NH2 to rat anterior pituitary membrane homogenates. Iodinated derivatives of [His^1,Nle^27 ]hGH-RH(1-32)NH2 are prepared by the chloramine-T method (F. C. Greenwood et al., Biochemistry 89:114-123, 1963), hereby incorporated by reference. Pituitaries from male Sprague-Dawley rats (250-300 g) are used to prepare crude membranes. For saturation binding analyses, membrane homogenates are incubated with at least 6 concentrations of [His^1,^25 I-Tyr^10,Nle^27 ]hGH-RH(1-32)NH2, ranging from 0.005 to 0.35 nM in the presence or absence of excess unlabelled peptide (1 μM). The pellet is counted for radioactivity in a y-counter. The affinities of the antagonist peptides tested to rat pituitary GH-RH receptors are determined in competitive binding experiments. The final binding affinities are estimated by Ki (dissociation constant of the inhibitor-receptor complex) and are determined by the Ligand PC computer program of Munson and Rodbard as modified by McPherson. Relative affinities compared to [Ac-Tyr^1,D-Arg^2 ]hGH-RH(1-29)NH2, the Standard antagonist, are calculated as the ratio of Ki of the tested GH-RH antagonist to the Ki of the Standard antagonist.

[3] = test system: hGH-RH(1-29)NH2 induced GH release; experiment: In vivo test: serum GH levels in rats pretreated with GH-RH antagonists before hGH-RH(1-29)NH2; set-up: species or system Sprague-Dawley rats
Description: In Vivo Tests. Adult male Sprague-Dawley rats are anesthetized with pentobarbital (6 mg/100 g b.w., i.p.). Blood samples are taken from the jugular vein 30 min after the injection of pentobarbital. One group of 7 animals receives hGH-RH(1-29)NH2 as control. Other groups of rats are injected with [Ac-Tyr^1,D-Arg^2 ]hGH-RH(1-29)NH2 as Standard antagonist, or with one of the antagonist peptide 30 seconds prior to hGH-RH(1-29)NH2, which is administered at dose of 2-3 μg/kg b.w. Blood samples are taken from the jugular vein 5 and 15 min after the injection of antagonists. GH levels are measured by RIA. Potencies of the antagonists are calculated by the factorial analysis of Bliss and Marks with 95% confidence limits and are based on the doses of 100 and 400 μg/kg b.w. of the Standard antagonist and 20 and 80 μg/kg b.w. of the antagonists tested. Statistical significance was assessed by Duncan's new multiple range test.

GH release = conditions: cited from earlier work

Ki ([2]; competition with labelled [His1,Nle27]hGH-RH(1-32)NH2) | R.A. (relative affinity compared to the Standard antagonist) ([2]; ratio of Ki values, Standard = 1) | Compound | Inhibition of GH release (%) 0 min ([1]; 0 min response) | Inhibition of GH release (%) 30 min ([1]; 30 min response) | Inhibition of GH release (%) 60 min ([1]; 60 min response) | GH Levels ([3]; antagonist 100.0 μg/kg intravenously before GH-RH(1-29)NH2) | GH Levels ([3]; antagonist 400.0 μg/kg intravenously before GH-RH(1-29)NH2) | in vivo potency over that of GH-RH (GH release)
3.22 ± 0.12 nM | 1 | CC[C@H](C)[C@H](NC(=O)[C@H](C)NC(=O)[C@H](CC(=O)O)NC(=O)[C@@H](CCCNC(=N)N)NC(=O)[C@H](Cc1ccc(O)cc1)NC(C)=O)C(=O)N[C@@H](Cc1ccccc1)C(=O)N[C@H](C(=O)N[C@@H](CC(N)=O)C(=O)N[C@@H](CO)C(=O)N[C@@H](Cc1ccc(O)cc1)C(=O)N[C@@H](CCCNC(=N)N)C(=O)N[C@@H](CCCCN)C(=O)N[C@H](C(=O)N[C@@H](CC(C)C)C(=O)NCC(=O)N[C@@H](CCC(N)=O)C(=O)N[C@@H](CC(C)C)C(=O)N[C@@H](CO)C(=O)N[C@@H](C)C(=O)N[C@@H](CCCNC(=N)N)C(=O)N[C@@H](CCCCN)C(=O)N[C@@H](CC(C)C)C(=O)N[C@@H](CC(C)C)C(=O)N[C@@H](CCC(N)=O)C(=O)N[C@@H](CC(=O)O)C(=O)N[C@H](C(=O)N[C@@H](CCSC)C(=O)N[C@@H](CO)C(=O)N[C@@H](CCCNC(=N)N)C(N)=O)[C@@H](C)CC)C(C)C)[C@@H](C)O [Standard antagonist, [Ac-Tyr^1, D-Arg^2]hGH-RH(1-29)NH2, reference compound] (Ac-Y[dR]DAIFTNSYRKVLGQLSARKLLQDIMSR-NH2) | 62.1% | 2.5% | 19% | 738.3 ± 34.7 ng/mL | 439.7 ± 47.3 ng/mL | –
– | – | [AcTyr^1 ]hGH-RH(1-29)NH2 | – | – | – | – | – | ten fold or more
